ChEMBL document CHEMBL4619806, “Screening of a Custom-Designed Acid Fragment Library Identifies 1-Phenylpyrroles and 1-Phenylpyrrolidines as Inhibitors of Notum Carboxylesterase Activity” (J Med Chem, 2020)
Values after ≈ are worked out from the molar mass of the structure shown. Each block holds one compound with its values, some of them ahead of it.

Columns and labels:
[1] = target: T1, Palmitoleoyl-protein carboxylesterase NOTUM (Homo sapiens, UniProt Q6P988, C330S); assay: Inhibition of human Notum (S81 to T451 residues) Cys330Ser mutant expressed in HEK293S GnTI cells using OPTS as substrate incubated for 40 mins by fluorescence based assay
T1 sequence (Q6P988 20-496 C330S limits assumed): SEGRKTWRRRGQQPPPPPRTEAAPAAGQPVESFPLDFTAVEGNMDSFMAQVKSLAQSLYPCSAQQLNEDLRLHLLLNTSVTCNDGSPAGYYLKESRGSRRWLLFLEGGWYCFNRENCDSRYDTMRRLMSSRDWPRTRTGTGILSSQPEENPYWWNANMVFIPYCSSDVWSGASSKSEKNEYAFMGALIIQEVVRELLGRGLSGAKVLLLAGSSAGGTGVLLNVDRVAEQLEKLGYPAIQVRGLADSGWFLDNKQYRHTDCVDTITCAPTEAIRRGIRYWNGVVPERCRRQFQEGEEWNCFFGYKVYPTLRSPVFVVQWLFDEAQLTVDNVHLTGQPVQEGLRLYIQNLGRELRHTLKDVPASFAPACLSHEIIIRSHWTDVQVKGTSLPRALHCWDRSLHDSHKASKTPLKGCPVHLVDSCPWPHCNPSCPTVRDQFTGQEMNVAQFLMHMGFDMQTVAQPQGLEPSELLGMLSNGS

[2] = target: T1, Palmitoleoyl-protein carboxylesterase NOTUM; assay: Inhibition of human Notum (S81 to T451 residues) Cys330Ser mutant expressed in HEK293S GnTI cells at 100 uM using OPTS as substrate incubated for 40 mins by fluorescence based assay relative to control
[3] = Apparent permeability from apical to basolateral side in MDCK2-MDR1 cells at 10 uM measured up to 120 mins by LC-MS/MS analysis; type: ADME, cell-based, Canis lupus familiaris; conditions: dog, MDCK-MDR1
[4] = Intrinsic clearance in mouse liver microsomes at 1 uM measured up to 60 mins in presence of NADPH by LC-MS/MS analysis; type: ADME, Microsome; conditions: read-out: CLH
[5] = Aqueous solubility at pH 7.4; type: physicochemical; conditions: buffer
[6] = Efflux ratio of apparent permeability in MDCK2-MDR1 cells at 10 uM measured up to 120 mins by LC-MS/MS analysis; type: ADME, cell-based, Canis lupus familiaris; conditions: dog, MDCK-MDR1
[7] = Chromatographic hydrophobicity index, log D of the compound at pH 7.4; type: physicochemical; conditions: buffer
[8] = Apparent permeability from basolateral to apical side in MDCK2-MDR1 cells at 10 uM measured up to 120 mins by LC-MS/MS analysis; type: ADME, cell-based, Canis lupus familiaris; conditions: dog, MDCK-MDR1

SMILES: Cc1[nH]c(C(F)(F)F)cc1C(=O)O
IC50 [1]: 6.7 µM

SMILES: O=C(O)C1CCN(c2c(Cl)cccc2Cl)C1 (racemic)
IC50 [1]: 26 µM

SMILES: Cc1cc(C(=O)O)c(C)n1-c1ccccc1F
IC50 [1]: 3.3 µM

SMILES: O=C(O)C1CCN(c2ccc(F)c(C(F)(F)F)c2)C1 (racemic)
IC50 [1]: 2.5 µM

SMILES: O=C(O)C1CCN(c2cccc(C(F)(F)F)c2)C1 (racemic)
IC50 [1]: 11 µM

SMILES: Cc1cc(C(=O)O)c(C)[nH]1
IC50 [1]: > 100 µM
inhibition at 100 µM [2]: < 20%

SMILES: Cc1cc(C(=O)O)c(C)n1C1CC1
IC50 [1]: 6.3 µM

SMILES: Cc1cccc(N2CCC(C(=O)O)C2)c1 (racemic)
IC50 [1]: 49 µM

SMILES: O=c1[nH]nc(C2CCN(c3ccc(Cl)c(C(F)(F)F)c3)C2)o1 (configuration not stated)
IC50 [1]: 4.2 µM
Papp A→B at 2 h, 10 µM [3]: 130 nm/s
microsomal CLint at 1 µM [4]: 10 µL/min/mg
solubility [5]: 69 µM (≈ 23 µg/mL)
efflux ratio at 2 h, 10 µM [6]: 1.5
chromatographic logD [7]: 3.5
Papp B→A at 2 h, 10 µM [8]: 190 nm/s

SMILES: Cc1cc(C(=O)O)c(C)n1-c1cccc(Cl)c1C#N
IC50 [1]: 2 µM

SMILES: O=C(C1CCN(c2ccc(Cl)c(C(F)(F)F)c2)C1)N1CCOCC1 (configuration not stated)
IC50 [1]: 9.7 µM

SMILES: Cc1cc(C(=O)O)c(C)n1C
IC50 [1]: > 100 µM
inhibition at 100 µM [2]: 20 to 40%

SMILES: Cc1cc(C(=O)O)c(C)n1Cc1ccccc1
IC50 [1]: 14 µM

SMILES: N#Cc1cccc(N2CCC(C(=O)O)C2)c1 (racemic)
IC50 [1]: 42 µM

SMILES: Cc1ccccc1-n1c(C)cc(C(=O)O)c1C
IC50 [1]: 2.2 µM

SMILES: Cc1cc(C(=O)O)c(C)n1-c1c(Cl)cccc1Cl
IC50 [1]: 2.3 µM

SMILES: COCCNC(=O)C1CCN(c2ccc(Cl)c(C(F)(F)F)c2)C1 (configuration not stated)
IC50 [1]: 3.5 µM

SMILES: O=C(O)C1CCN(c2cccc(Cl)c2)C1 (racemic)
IC50 [1]: 14 µM

SMILES: O=C(O)C1CCN(c2cccc(Cl)c2Cl)C1 (racemic)
IC50 [1]: 8 µM

SMILES: FC(F)(F)c1cc(N2CCC(c3nnco3)C2)ccc1Cl (configuration not stated)
IC50 [1]: 24 µM

SMILES: CC(C)c1cccc(N2CCC(C(=O)O)C2)c1 (racemic)
IC50 [1]: 57 µM

SMILES: O=C(O)C1CCN(c2ccccc2Cl)C1 (configuration not stated)
IC50 [1]: 19 µM

SMILES: O=C(O)C1CCN(c2cccc(OC(F)(F)F)c2)C1 (racemic)
IC50 [1]: 63 µM

SMILES: O=C(O)C1CCN(c2cc(Cl)ccc2Cl)C1 (racemic)
IC50 [1]: 7.9 µM

SMILES: O=C(O)C1CCN(c2ccc(Cl)cc2Cl)C1 (racemic)
IC50 [1]: 10 µM

SMILES: Cc1cc(C(=O)O)c[nH]1
IC50 [1]: 100 µM
inhibition at 100 µM [2]: 50%

SMILES: O=C(O)C1CCN(c2ccc(C(F)(F)F)c(Cl)c2)C1 (racemic)
IC50 [1]: 8.5 µM

SMILES: O=C(O)[C@H]1CCN(c2ccc(Cl)c(C(F)(F)F)c2)C1
Papp A→B at 2 h, 10 µM [3]: 390 nm/s
microsomal CLint at 1 µM [4]: 2.5 µL/min/mg
solubility [5]: > 595 µM
chromatographic logD [7]: 1.5
Papp B→A at 2 h, 10 µM [8]: 430 nm/s

SMILES: O=C(O)C1CCN(c2ccc(F)cc2)C1 (racemic)
IC50 [1]: 15 µM

SMILES: Cc1ccc(-n2c(C)cc(C(=O)O)c2C)cc1
IC50 [1]: 2 µM

SMILES: Cc1cc(C(=O)O)c(C)n1-c1cccc(C#N)c1
IC50 [1]: 3.1 µM

SMILES: Cc1c[nH]c(C)c1C(=O)O
IC50 [1]: 100 µM
inhibition at 100 µM [2]: 50%

SMILES: O=C(O)C1CCN(c2ccccc2F)C1 (configuration not stated)
IC50 [1]: 11 to 11.3 µM

SMILES: Cc1c(C(=O)O)cc(C(F)(F)F)n1Cc1ccccc1
IC50 [1]: > 100 µM
inhibition at 100 µM [2]: 20 to 40%

SMILES: Cc1cc(C(=O)O)c(C)n1-c1ccccc1Cl
IC50 [1]: 2.3 µM

SMILES: Cc1cc(C(=O)O)c(C)n1CC1CC1
IC50 [1]: 12.7 µM

SMILES: O=C(O)c1c[nH]c(C(F)(F)F)c1
IC50 [1]: > 100 µM
inhibition at 100 µM [2]: < 20%

SMILES: O=C(O)C1CCN(c2cc(Cl)cc(Cl)c2)C1 (racemic)
IC50 [1]: 11 µM

SMILES: Cc1[nH]ccc1C(=O)O
IC50 [1]: > 100 µM
inhibition at 100 µM [2]: < 20%

SMILES: Cc1c(C(=O)O)ccn1-c1ccccc1
IC50 [1]: 3.8 µM

SMILES: CN1CCN(C(=O)C2CCN(c3ccc(Cl)c(C(F)(F)F)c3)C2)CC1=O (configuration not stated)
IC50 [1]: 3.1 µM

SMILES: Cc1c[nH]cc1C(=O)O
IC50 [1]: 100 µM
inhibition at 100 µM [2]: 50%

SMILES: O=C(O)C1CCN(c2ccc(C(F)(F)F)cc2)C1 (racemic)
IC50 [1]: 50 µM

SMILES: O=C(O)C1CCN(c2cccc(C(F)(F)F)c2F)C1 (configuration not stated)
IC50 [1]: 6.8 µM

SMILES: O=C(C1CCN(c2ccc(Cl)c(C(F)(F)F)c2)C1)N1CC2COCC2C1 (configuration not stated)
IC50 [1]: 3.1 µM

SMILES: Cc1cc(C(=O)O)c(C)n1-c1ccc(F)cc1
IC50 [1]: 1.9 µM

SMILES: O=C(O)c1cc[nH]c1
IC50 [1]: > 100 µM
inhibition at 100 µM [2]: < 20%

SMILES: Cc1cc(C(=O)O)c(C)n1-c1ccc(Cl)c(C(F)(F)F)c1
IC50 [1]: 2.1 µM

SMILES: O=C(O)C1CCN(c2ccc(Cl)cc2)C1 (racemic)
IC50 [1]: 19 µM

SMILES: Cc1c(C(=O)O)ccn1Cc1ccccc1
IC50 [1]: 3.1 µM

SMILES: Cc1c(C(=O)O)cc(C(F)(F)F)n1-c1ccccc1
IC50 [1]: 22 µM

Further compounds by falling IC50 [1], results first:

IC50 [1]: 1.7 µM
SMILES: Cc1cc(C(=O)O)c(C)n1-c1ccccc1

IC50 [1]: 1.7 µM
SMILES: Cc1cc(C(=O)O)c(C)n1-c1cc(Cl)ccc1Cl

IC50 [1]: 1.5 µM
SMILES: Cc1cc(C(=O)O)c(C)n1-c1cccc(F)c1

IC50 [1]: 1.5 µM
SMILES: COc1cccc(-n2c(C)cc(C(=O)O)c2C)c1

IC50 [1]: 1.5 µM
SMILES: Cc1cc(C(=O)O)c(C)n1-c1ccc(C(F)(F)F)c(Cl)c1

IC50 [1]: 1.5 µM
SMILES: Cc1cccc(-n2c(C)cc(C(=O)O)c2C)c1

IC50 [1]: 1.5 µM
SMILES: Cc1cc(C(=O)O)c(C)n1-c1cccc(C(F)(F)F)c1

IC50 [1]: 1.4 µM
SMILES: CN1CN(C(=O)C2CCN(c3ccc(Cl)c(C(F)(F)F)c3)C2)CC1=O (configuration not stated)

IC50 [1]: 1.3 µM
SMILES: CNC(=O)C1CCN(c2ccc(Cl)c(C(F)(F)F)c2)C1 (configuration not stated)

IC50 [1]: 1.2 µM
SMILES: CN(C)C(=O)C1CCN(c2ccc(Cl)c(C(F)(F)F)c2)C1 (configuration not stated)

IC50 [1]: 1.2 µM
SMILES: O=C(O)C1CCN(c2ccc(Cl)c(Cl)c2)C1 (racemic)

IC50 [1]: 1 µM
SMILES: O=C(Nc1ccccc1)C1CCN(c2ccc(Cl)c(C(F)(F)F)c2)C1 (configuration not stated)

IC50 [1]: 0.86 µM
SMILES: Cc1cc(C(=O)O)c(C)n1-c1ccc(Cl)cc1

IC50 [1]: 0.85 µM
SMILES: Cc1cc(C(=O)O)c(C)n1-c1cc(Cl)cc(Cl)c1

IC50 [1]: 0.8 µM
SMILES: COc1c(Cl)cccc1-n1c(C)cc(C(=O)O)c1C

IC50 [1]: 0.64 µM
SMILES: CCOc1cccc(-n2c(C)cc(C(=O)O)c2C)c1

IC50 [1]: 0.63 µM
SMILES: Cc1cc(C(=O)O)c(C)n1-c1cccc(C#N)c1F

IC50 [1]: 0.6 µM
SMILES: O=C(O)C1CCN(c2ccc(Cl)c(Cl)c2Cl)C1 (racemic)

IC50 [1]: 0.58 µM
SMILES: Cc1cc(C(=O)O)c(C)n1-c1cccc(C2CC2)c1

IC50 [1]: 0.46 µM
SMILES: Cc1cc(C(=O)O)c(C)n1-c1cccc(C(C)(C)C)c1

IC50 [1]: 0.43 µM
SMILES: Cc1cc(C(=O)O)c(C)n1-c1ccc(Cl)cc1Cl

IC50 [1]: 0.43 µM
SMILES: Cc1cc(C(=O)O)c(C)n1-c1cccc(Cl)c1

IC50 [1]: 0.41 µM
SMILES: O=C(C1CCN(c2ccc(Cl)c(C(F)(F)F)c2)C1)N1CCCC1 (configuration not stated)

IC50 [1]: 0.38 µM
SMILES: Cc1cc(C(=O)O)c(C)n1-c1cccc(Cl)c1F

IC50 [1]: 0.36 µM
SMILES: Cc1cc(C(=O)O)c(C)n1-c1cccc(C(C)C)c1

IC50 [1]: 0.27 µM
SMILES: Cc1cc(C(=O)O)c(C)n1-c1ccc(Cl)c(Cl)c1

IC50 [1]: 0.26 µM
Papp A→B at 2 h, 10 µM [3]: 80 nm/s
microsomal CLint at 1 µM [4]: 21 µL/min/mg
solubility [5]: 19 µM (≈ 7.01 µg/mL)
efflux ratio at 2 h, 10 µM [6]: 1.2
chromatographic logD [7]: 4
Papp B→A at 2 h, 10 µM [8]: 100 nm/s
SMILES: O=C(C1CCN(c2ccc(Cl)c(C(F)(F)F)c2)C1)N1CC(F)(F)C1 (configuration not stated)

IC50 [1]: 0.22 µM
SMILES: Cc1cc(C(=O)O)c(C)n1-c1cccc(Cl)c1Cl

IC50 [1]: 0.2 µM
SMILES: Cc1cc(C(=O)O)c(C)n1-c1cccc(C2CC2)c1F

IC50 [1]: 0.15 µM
Papp A→B at 2 h, 10 µM [3]: 460 nm/s
microsomal CLint at 1 µM [4]: 52 µL/min/mg
solubility [5]: 51 µM (≈ 14 µg/mL)
efflux ratio at 2 h, 10 µM [6]: 0.93
chromatographic logD [7]: 3.1
Papp B→A at 2 h, 10 µM [8]: 430 nm/s
SMILES: Cc1cc(C(=O)O)c(C)n1-c1cccc(C(C)C)c1F
